# Experimental data: patent US20250277012A1 (Protagonist Therapeutics, Inc., priority 2021, published 2025)
# Positions of bridges follow the written chain, without caps; N, C: chain ends. Non-standard residues stand in square brackets, D forms with d. Residues, ends and D or L forms follow the SMILES beside them. Groups on a side chain read outwards from the residue. *: point of attachment. X1 = C[N+](C)(CCNC(=O)CCCCCCCCCCCCCCCCC(=O)O)CC(=O)*; Ala(quinolin-3-yl) = N[C@@H](Cc1cnc2ccccc2c1)C(=O)O; C18 diacid = O=C(O)CCCCCCCCCCCCCCCCC(=O)*; Dip = N[C@H](C(=O)O)C(c1ccccc1)c1ccccc1; Phenylacetyl(4-F) = O=C(Cc1ccc(F)cc1)*; Palmitoyl = CCCCCCCCCCCCCCCC(=O)*; β3hF = N[C@H](CC(=O)O)Cc1ccccc1; NMeK = CN[C@@H](CCCCN)C(=O)O; αMeK = C[C@](N)(CCCCN)C(=O)O; Nicotinoyl = O=C(c1cccnc1)*; Isovaleryl = CC(C)CC(=O)*; Dap = NC[C@H](N)C(=O)O; AEEA = NCCOCCOCC(=O)O; Inp = O=C(O)C1CCNCC1; Ahx = NCCCCCC(=O)O
# What was measured:
# [1] = target: T1, ferroportin (Homo sapiens, UniProt Q9NP59); experiment: T47D cell-based ferroportin internalization assay in presence of mouse serum albumin (MSA); parameters: a human breast carcinoma adherent cell line which endogenously expresses ferroportin; host or cells: T47D; conditions: T47D internalization assay in presence of mouse serum albumin (MSA); Table 6E
# T1 sequence (Q9NP59 1-571): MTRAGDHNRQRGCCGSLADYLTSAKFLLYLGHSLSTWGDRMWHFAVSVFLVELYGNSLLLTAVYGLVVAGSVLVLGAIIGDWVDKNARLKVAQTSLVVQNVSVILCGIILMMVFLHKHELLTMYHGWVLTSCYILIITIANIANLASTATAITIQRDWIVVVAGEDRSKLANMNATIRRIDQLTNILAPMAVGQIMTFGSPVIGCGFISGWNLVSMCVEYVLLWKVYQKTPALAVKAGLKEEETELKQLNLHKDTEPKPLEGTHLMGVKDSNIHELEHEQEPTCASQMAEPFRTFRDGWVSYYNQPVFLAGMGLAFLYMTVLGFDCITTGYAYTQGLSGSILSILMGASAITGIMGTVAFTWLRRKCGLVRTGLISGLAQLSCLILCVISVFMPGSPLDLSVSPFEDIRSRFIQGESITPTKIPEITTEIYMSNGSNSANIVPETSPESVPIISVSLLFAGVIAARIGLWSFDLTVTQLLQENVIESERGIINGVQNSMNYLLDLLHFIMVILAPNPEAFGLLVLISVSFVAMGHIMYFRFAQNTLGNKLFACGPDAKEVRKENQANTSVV
# Outline: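 Peptide potency for inducing ferroportin internalization was measured in T47D cells in the presence of serum albumin. Cells grown in RPMI with fetal bovine serum were seeded in 96-well plates at 80-100 k cells per well in 100 ul and rested overnight. Dilution series of test peptides were preincubated 30 min at room temperature, then added to the cells after the medium was aspirated.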
# [2] = target: T1, ferroportin; experiment: FPN activity assay: ferroportin-GFP internalization/degradation in HEK293 cells; format: cell-based; parameters: expressed in transfected cells; conditions: ferroportin-GFP internalization/degradation, HEK293 cells; Table 6E; read-out: FPN IC50
# Method: Following internalization, the ferroporin protein is degraded.
# A retro inverse peptide is a peptide with a reversed sequence in all D amino acids. An example is that Hy-Glu-Thr-His-NH2 becomes Hy-DHis-DThr-DGlu-NH2. The EC50 of these reference compounds for ferroportin internalization/degradation was determined according to the FPN activity assay described above. These peptides served as control standards.
# [3] = target: human ferroportin (SLC40A1) fused in frame with the GFP protein (human) (UniProt Q9NP59); experiment: cell-based or functional assay
Molecule,IC50 [1],DC50 [2],Potency EC50 [3]
CC(C)CC(=O)N[C@@H](CCC(=O)O)C(=O)N[C@H](C(=O)N[C@@H](Cc1cnc2ccccc2c1)C(=O)N[C@H](C(=O)N1CCC[C@H]1C(=O)N[C@H]1CSSC[C@@H](C(=O)N(C)[C@@H](CCCCNC(=O)COCCOCCNC(=O)COCCOCCNC(=O)[C@H](CN)NC(=O)CCCCCCCCCCCCCCCCC(=O)O)C(=O)N[C@H](CC(=O)N[C@H](CCCCN)C(N)=O)Cc2ccccc2)NC1=O)C(c1ccccc1)c1ccccc1)[C@@H](C)O [compound 296] (Isovaleryl-ET[Ala(quinolin-3-yl)][Dip]PCC[NMeK]([AEEA-AEEA-Dap-C18 diacid])[β3hF][dK]-NH2; disulfide 6-7),> 500 nM,> 500 nM,
C[C@@H](O)[C@H](NC(=O)[C@H](CCC(=O)O)NC(=O)Cc1ccc(F)cc1)C(=O)N[C@@H](Cc1c[nH]cn1)C(=O)N[C@H](C(=O)N1CCC[C@H]1C(=O)N[C@H]1CSSC[C@@H](C(=O)N(C)[C@@H](CCCCNC(=O)COCCOCCNC(=O)COCCOCCNC(=O)[C@H](CN)NC(=O)CCCCCCCCCCCCCCCCC(=O)O)C(=O)N[C@H](CC(=O)N[C@H](CCCCN)C(N)=O)Cc2ccccc2)NC1=O)C(c1ccccc1)c1ccccc1 [compound 298] ({Phenylacetyl(4-F)}-ETH[Dip]PCC[NMeK]([AEEA-AEEA-Dap-C18 diacid])[β3hF][dK]-NH2; disulfide 6-7),10 to 100 nM,10 to 100 nM,
C[C@@H](O)[C@H](NC(=O)[C@H](CCC(=O)O)NC(=O)c1cccnc1)C(=O)N[C@@H](Cc1c[nH]cn1)C(=O)N[C@H](C(=O)N1CCC[C@H]1C(=O)N[C@H]1CSSC[C@@H](C(=O)N(C)[C@@H](CCCCNC(=O)COCCOCCNC(=O)COCCOCCNC(=O)[C@H](CN)NC(=O)CCCCCCCCCCCCCCCCC(=O)O)C(=O)N[C@H](CC(=O)N[C@H](CCCCN)C(N)=O)Cc2ccccc2)NC1=O)C(c1ccccc1)c1ccccc1 [compound 299] (Nicotinoyl-ETH[Dip]PCC[NMeK]([AEEA-AEEA-Dap-C18 diacid])[β3hF][dK]-NH2; disulfide 6-7),10 to 100 nM,10 to 100 nM,
C[C@@H](O)[C@H](NC(=O)[C@H](CCC(=O)O)NC(=O)C1CCNCC1)C(=O)N[C@@H](Cc1c[nH]cn1)C(=O)N[C@H](C(=O)N1CCC[C@H]1C(=O)N[C@H]1CSSC[C@@H](C(=O)N(C)[C@@H](CCCCNC(=O)COCCOCCNC(=O)COCCOCCNC(=O)[C@H](CN)NC(=O)CCCCCCCCCCCCCCCCC(=O)O)C(=O)N[C@H](CC(=O)N[C@H](CCCCN)C(N)=O)Cc2ccccc2)NC1=O)C(c1ccccc1)c1ccccc1 [compound 300] (H-[Inp]ETH[Dip]PCC[NMeK]([AEEA-AEEA-Dap-C18 diacid])[β3hF][dK]-NH2; disulfide 7-8),100 to 500 nM,100 to 500 nM,
COC(=O)CC[C@H](NC(=O)CC(C)C)C(=O)N[C@H](C(=O)N[C@@H](Cc1c[nH]cn1)C(=O)N[C@H](C(=O)N1CCC[C@H]1C(=O)N[C@H]1CSSC[C@@H](C(=O)N[C@@](C)(CCCCNC(=O)COCCOCCNC(=O)COCCOCCNC(=O)[C@H](CN)NC(=O)CCCCCCCCCCCCCCCCC(=O)O)C(=O)N[C@H](CC(=O)N[C@H](CCCCN)C(N)=O)Cc2ccccc2)NC1=O)C(c1ccccc1)c1ccccc1)[C@@H](C)O [compound 301] (Isovaleryl-E(OMe)TH[Dip]PCC[αMeK]([AEEA-AEEA-Dap-C18 diacid])[β3hF][dK]-NH2; disulfide 6-7),10 to 100 nM,10 to 100 nM,
CC(C)CC(=O)N[C@@H](CCC(=O)O)C(=O)N[C@H](C(=O)N[C@@H](Cc1c[nH]cn1)C(=O)N[C@H](C(=O)N1CCC[C@H]1C(=O)N[C@H]1CSSC[C@@H](C(=O)N[C@@](C)(CCCCNC(=O)COCCOCCNC(=O)COCCOCCNC(=O)[C@H](CN)NC(=O)CCCCCCCCCCCCCCCCC(=O)O)C(=O)N[C@H](CC(=O)N[C@H](CCCCN)C(N)=O)Cc2ccccc2)NC1=O)C(c1ccccc1)c1ccccc1)[C@@H](C)O [compound 302] (Isovaleryl-ETH[Dip]PCC[αMeK]([AEEA-AEEA-Dap-C18 diacid])[β3hF][dK]-NH2; disulfide 6-7),10 to 100 nM,10 to 100 nM,
COC(=O)CC[C@H](NC(=O)CC(C)C)C(=O)N[C@H](C(=O)N[C@@H](Cc1c[nH]cn1)C(=O)N[C@H](C(=O)N1CCC[C@H]1C(=O)N[C@H]1CSSC[C@@H](C(=O)N(C)[C@@H](CCCCNC(=O)COCCOCCNC(=O)COCCOCCNC(=O)[C@H](CN)NC(=O)CCCCCCCCCCCCCCCCC(=O)O)C(=O)N[C@H](CC(=O)N[C@H](CCCCN)C(N)=O)Cc2ccccc2)NC1=O)C(c1ccccc1)c1ccccc1)[C@@H](C)O [compound 305] (Isovaleryl-E(OMe)TH[Dip]PCC[NMeK]([AEEA-AEEA-Dap-C18 diacid])[β3hF][dK]-NH2; disulfide 6-7),10 to 100 nM,10 to 100 nM,
CC(C)CC(=O)N[C@@H](CCC(=O)O)C(=O)N[C@H](C(=O)N[C@@H](Cc1c[nH]cn1)C(=O)N[C@H](C(=O)N1CCC[C@H]1C(=O)N[C@H]1CSSC[C@@H](C(=O)N(C)[C@@H](CCCCNC(=O)COCCOCCNC(=O)COCCOCCNC(=O)[C@H](CN)NC(=O)CCCCCCCCCCCCCCCCC(=O)O)C(=O)N[C@H](CC(=O)N[C@H](CCCCN)C(N)=O)Cc2ccccc2)NC1=O)C(c1ccccc1)c1ccccc1)[C@@H](C)O [compound 306] (Isovaleryl-ETH[Dip]PCC[NMeK]([AEEA-AEEA-Dap-C18 diacid])[β3hF][dK]-NH2; disulfide 6-7),10 to 100 nM,10 to 100 nM,
CCCCCCCCCCCCCCCC(=O)NCCCCCC(=O)NCCCC[C@@H](C(=O)N[C@H](CC(=O)N[C@H](CCCCN)C(N)=O)Cc1ccccc1)N(C)C(=O)[C@@H]1CSSC[C@H](NC(=O)[C@@H]2CCCN2C(=O)[C@@H](NC(=O)[C@H](Cc2cnc[nH]2)NC(=O)[C@@H](NC(=O)[C@H](CCC(=O)OC)NC(=O)CC(C)C)[C@@H](C)O)C(c2ccccc2)c2ccccc2)C(=O)N1 [compound 307] (Isovaleryl-E(OMe)TH[Dip]PCC[NMeK]([Ahx-Palmitoyl])[β3hF][dK]-NH2; disulfide 6-7),1 to 10 nM,10 to 100 nM,
CCCCCCCCCCCCCCCC(=O)NCCCCCC(=O)NCCCC[C@@H](C(=O)N[C@H](CC(=O)N[C@H](CCCCN)C(N)=O)Cc1ccccc1)N(C)C(=O)[C@@H]1CSSC[C@H](NC(=O)[C@@H]2CCCN2C(=O)[C@@H](NC(=O)[C@H](Cc2cnc[nH]2)NC(=O)[C@@H](NC(=O)[C@H](CCC(=O)O)NC(=O)CC(C)C)[C@@H](C)O)C(c2ccccc2)c2ccccc2)C(=O)N1 [compound 308] (Isovaleryl-ETH[Dip]PCC[NMeK]([Ahx-Palmitoyl])[β3hF][dK]-NH2; disulfide 6-7),1 to 10 nM,10 to 100 nM,
COC(=O)CC[C@H](NC(=O)CC(C)C)C(=O)N[C@H](C(=O)N[C@@H](Cc1c[nH]cn1)C(=O)N[C@H](C(=O)N1CCC[C@H]1C(=O)N[C@H]1CSSC[C@@H](C(=O)N[C@@H](CCCCNC(=O)CCCCCNC(=O)C[N+](C)(C)CCNC(=O)CCCCCCCCCCCCCCCCC(=O)O)C(=O)N[C@H](CC(=O)N[C@H](CCCCN)C(N)=O)Cc2ccccc2)NC1=O)C(c1ccccc1)c1ccccc1)[C@@H](C)O [compound 311] (Isovaleryl-E(OMe)TH[Dip]PCCK([Ahx-X1])[β3hF][dK]-NH2; disulfide 6-7),10 to 100 nM,10 to 100 nM,
CC(C)CC(=O)N[C@@H](CCC(=O)O)C(=O)N[C@H](C(=O)N[C@@H](Cc1c[nH]cn1)C(=O)N[C@H](C(=O)N1CCC[C@H]1C(=O)N[C@H]1CSSC[C@@H](C(=O)N[C@@H](CCCCNC(=O)CCCCCNC(=O)C[N+](C)(C)CCNC(=O)CCCCCCCCCCCCCCCCC(=O)O)C(=O)N[C@H](CC(=O)N[C@H](CCCCN)C(N)=O)Cc2ccccc2)NC1=O)C(c1ccccc1)c1ccccc1)[C@@H](C)O [compound 312] (Isovaleryl-ETH[Dip]PCCK([Ahx-X1])[β3hF][dK]-NH2; disulfide 6-7),10 to 100 nM,10 to 100 nM,
Hepcidin (ligand),,,34 nM
